#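 Step 1: Grow cells in 96-well plates. Step 2: Expose to compound for 48 hours at 5 concentrations. Step 3: Interpolate endpoints linearly; if unreached, use highest concentration. TGI: concentration producing complete growth inhibition.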
# How the values were obtained:
# Assay in all cases: inhibition of tumour cell growth, NCI panel, 48 h
# DMS 273 small cell lung = tested on: DMS 273 small cell lung
# EKVX NSCLC = tested on: EKVX NSCLC
# SNB-19 CNS = tested on: SNB-19 CNS
# NCI-H460 lung = tested on: NCI-H460 lung
# OVCAR-4 ovarian = tested on: OVCAR-4 ovarian
# UO-31 renal = tested on: UO-31 renal
# SK-MEL-5 melanoma = tested on: SK-MEL-5 melanoma
# SW-620 colon = tested on: SW-620 colon
# SR leukemia = tested on: SR leukemia
# CCRF-CEM leukemia = tested on: CCRF-CEM leukemia
# A549 NSCLC = tested on: A549 NSCLC
# SNB-75 CNS = tested on: SNB-75 CNS
# ACHN renal = tested on: ACHN renal
# MALME-3M melanoma = tested on: MALME-3M melanoma
# TK-10 renal = tested on: TK-10 renal
# SF-539 CNS = tested on: SF-539 CNS
# UACC-257 melanoma = tested on: UACC-257 melanoma
# 786-0 renal = tested on: 786-0 renal
# SK-MEL-2 melanoma = tested on: SK-MEL-2 melanoma
# A498 renal = tested on: A498 renal
# UACC-62 melanoma = tested on: UACC-62 melanoma
# U251 CNS = tested on: U251 CNS
# DMS 114 small cell lung = tested on: DMS 114 small cell lung
# IGROV1 ovarian = tested on: IGROV1 ovarian
# LXFL 529 NSCLC = tested on: LXFL 529 NSCLC
# HCT-15 colon = tested on: HCT-15 colon
# HCC-2998 colon = tested on: HCC-2998 colon
# MOLT-4 leukemia = tested on: MOLT-4 leukemia
# HL-60(TB) leukemia = tested on: HL-60(TB) leukemia
# DLD-1 colon = tested on: DLD-1 colon
# COLO 205 colon = tested on: COLO 205 colon
# OVCAR-3 ovarian = tested on: OVCAR-3 ovarian
# XF 498 CNS = tested on: XF 498 CNS
# LOX IMVI melanoma = tested on: LOX IMVI melanoma
# K-562 leukemia = tested on: K-562 leukemia
# SF-295 CNS = tested on: SF-295 CNS
# NCI-H23 lung = tested on: NCI-H23 lung
# SF-268 CNS = tested on: SF-268 CNS
# HOP-62 NSCLC = tested on: HOP-62 NSCLC
# SN12C renal = tested on: SN12C renal
# KM20L2 colon = tested on: KM20L2 colon
# HT29 colon = tested on: HT29 colon
# RXF-631 renal = tested on: RXF-631 renal
# RXF 393 renal = tested on: RXF 393 renal
# OVCAR-8 ovarian = tested on: OVCAR-8 ovarian
# RPMI-8226 leukemia = tested on: RPMI-8226 leukemia
# HCT-116 colon = tested on: HCT-116 colon
# SK-MEL-28 melanoma = tested on: SK-MEL-28 melanoma
# M14 melanoma = tested on: M14 melanoma
smiles,measurement,setting,value
CC(C)c1cccc(C(C)C)c1NC(=S)N=Nc1cc(C(C)(C)C)c(O)c(C(C)(C)C)c1,TGI,DMS 273 small cell lung,> 100 µM
same,TGI,EKVX NSCLC,> 100 µM
same,TGI,SNB-19 CNS,48.5 µM
same,TGI,NCI-H460 lung,67.8 µM
same,TGI,OVCAR-4 ovarian,43.1 µM
same,TGI,UO-31 renal,74.7 µM
same,TGI,SK-MEL-5 melanoma,37.3 µM
same,TGI,SW-620 colon,78 µM
same,TGI,SR leukemia,> 100 µM
same,TGI,CCRF-CEM leukemia,66.6 µM
same,TGI,A549 NSCLC,45.6 µM
same,TGI,SNB-75 CNS,58 µM
same,TGI,ACHN renal,> 100 µM
same,TGI,MALME-3M melanoma,63.8 µM
same,TGI,TK-10 renal,71.5 µM
same,TGI,SF-539 CNS,39 µM
same,TGI,UACC-257 melanoma,43.7 µM
same,TGI,786-0 renal,35.7 µM
same,TGI,SK-MEL-2 melanoma,35.8 µM
same,TGI,A498 renal,34.4 µM
same,TGI,UACC-62 melanoma,50 µM
same,TGI,U251 CNS,30.1 µM
same,TGI,DMS 114 small cell lung,55.5 µM
same,TGI,IGROV1 ovarian,62.6 µM
same,TGI,LXFL 529 NSCLC,> 100 µM
same,TGI,HCT-15 colon,> 100 µM
same,TGI,HCC-2998 colon,54.3 µM
same,TGI,MOLT-4 leukemia,> 100 µM
same,TGI,HL-60(TB) leukemia,65.9 µM
same,TGI,DLD-1 colon,> 100 µM
same,TGI,COLO 205 colon,44.6 µM
same,TGI,OVCAR-3 ovarian,52.2 µM
same,TGI,XF 498 CNS,43.3 µM
same,TGI,LOX IMVI melanoma,34.2 µM
same,TGI,K-562 leukemia,78.8 µM
same,TGI,SF-295 CNS,> 100 µM
same,TGI,NCI-H23 lung,31.8 µM
same,TGI,SF-268 CNS,> 100 µM
same,TGI,HOP-62 NSCLC,32.3 µM
same,TGI,SN12C renal,52.4 µM
same,TGI,KM20L2 colon,58.6 µM
same,TGI,HT29 colon,> 100 µM
same,TGI,RXF-631 renal,> 100 µM
same,TGI,RXF 393 renal,30.9 µM
same,TGI,OVCAR-8 ovarian,38 µM
same,TGI,RPMI-8226 leukemia,85.9 µM
same,TGI,HCT-116 colon,13.1 µM
same,TGI,SK-MEL-28 melanoma,95.7 µM
same,TGI,M14 melanoma,84.3 µM
